The values that follow come from patent US12454531B2, “Substituted piperazine derivatives useful as T cell activators” (BRISTOL-MYERS SQUIBB COMPANY, priority 2019, dated 2025).

What is called IC50 is the concentration that gives 50% inhibition. High values mean lower potency, low ones higher potency. As a reminder, the EC50 is the concentration at which the effect is half-maximal.

Like-named read-outs stand apart in the source and are kept apart here.

The target in one test is DGKζ (Homo sapiens (Human), UniProt Q13574). Description: Assay 1 or 2: In Vitro DGK Inhibition Assays (DGKζ LIPGLO, extruded liposome). The following applies: extruded liposome substrate, 150 μM ATP. Format: biochemical. On the procedure: (§1) Assay 1: In Vitro DGK Inhibition Assays—Method A
(§2) The DGKα and DGKζ reactions were performed using either extruded liposome (DGKα and DGKζ LIPGLO assays) or detergent/lipid micelle substrate (DGKα and DGKζ assays). The reactions were carried out in 50 mM MOPS pH 7.5, 100 mM NaCl, 10 mM MgCl2, 1 μM CaCl2), and 1 mM DTT (assay buffer). The reactions using a detergent/lipid micelle substrate also contained 50 mM octyl B-D-glucopyranoside. The lipid substrate concentrations were 11 mM PS and 1 mM DAG for the detergent/lipid micelle reactions. The lipid substrate concentrations were 2 mM PS, 0.25 mM DAG, and 2.75 mM PC for the extruded liposome reactions. The reactions were carried out in 150 μM ATP. The enzyme concentrations for the DGKα and DGKζ were 5 nM
(§3) The compound inhibition studies were carried out as follows: 50 nL droplets of each test compound (top concentration 10 mM with 11 point, 3-fold dilution series for each compound) solubilized in DMSO were transferred to wells of a white 1536 well plate (Corning 3725). A 5 mL enzyme/substrate solution at 2× final reaction concentration was prepared by combining 2.5 mL 4× enzyme solution (20 nM DGKα or DGKζ (prepared as described below) in assay buffer) and 2.5 mL of either 4× liposome or 4× detergent/lipid micelle solution (compositions described below) and incubated at room temperature for 10 minutes. Next, 1 μL 2× enzyme/substrate solution was added to wells containing the test compound and reactions were initiated with the addition of 1 μL 300 uM ATP. The reactions were allowed to proceed for 1 hr, after which 2 μL Glo Reagent (Promega V9101) was added and incubated for 40 minutes. Next, 4 μL Kinase Detection Reagent was added and incubated for 30 minutes. Luminescence was recorded using an EnVision microplate reader. […] The compounds were evaluated at 11 concentrations to determine IC50.
(§4) The lipid composition was 5 mol % DAG (Avanti 8008110), 40 mol % PS (Avanti 840035P), and 55 mol % PC (Avanti 850457) at a total lipid concentration of 15.2 mg/mL for the 4× liposome solution. The PC, DAG, and PS were dissolved in chloroform, combined, and dried in vacuo to a thin film. The lipids were hydrated to 20 mM in 50 mM MOPS pH 7.5, 100 mM NaCl, 5 mM MgCl2, and were freeze-thawed five times. The lipid suspension was extruded through a 100 nm polycarbonate filter eleven times. […] The liposome preparation was stored at 4° C. for as long as four weeks.
(§5) Baculovirus amplification was achieved using infected Sf9 cells at 1:1500 virus/cell ratios, and grown for 65 hours at 27° C. post-transfection.
(§6) The cells were lysed using nitrogen cavitation method with a nitrogen bomb (Parr Instruments), and the lysates were clarified by centrifugation. […] The three steps column chromatography included nickel affinity resin capture (i.e. HisTrap FF crude, GE Healthcare), followed by size exclusion chromatography (i.e. HiLoad 26/600 Superdex 200 prep grade, GE Healthcare for DGK-alpha, and HiPrep 26/600 Sephacryl S 300_HR, GE Healthcare for DGK-zeta). The third step was ion exchange chromatography, and differed for the two isoforms. DGKα was polished using Q-Sepharose anion exchange chromatography (GE Healthcare). DGKζ was polished using SP Sepharose cation exchange chromatography (GE Healthcare). The proteins were delivered at concentrations of ≥2 mg/mL. The formulation buffers were identical for both proteins: 50 mM Hepes, pH 7.2, 500 mM NaCl, 10% v/v glycerol, 1 mM TCEP, and 0.5 mM EDTA.
Assay 2: In Vitro DGK Inhibition Assays—Method B
The DGKα and DGKζ reactions were performed using either extruded liposome (DGKα and DGKζ LIPGLO assays) or detergent/lipid micelle substrate (DGKα and DGKζ assays).

Another test addresses DGKα (Homo sapiens (Human), UniProt P23743). The experiment in a line: Assay 1: In Vitro DGK Inhibition Assays, Method A (DGKα LIPGLO, extruded liposome). Format: biochemical. The following applies: extruded liposome substrate, 150 μM ATP. The protocol:
as §1, §2, §3, §4, §5, §6

The next test deals with Human whole blood IFN-γ. Description: Assay 10: Human Whole Blood IFN-γ Assay. Format: cell-based. Conditions: anti-CD3 and anti-CD28 stimulation, 100% = 3 μM reference compound, read-out: INFg Whole Blood Normalized Agonist EC50. On the procedure: Assay 10: Human Whole Blood IFN-γ Assay
Human venous whole blood (22.5 μL per well), obtained from healthy donors, was pre-treated with compounds for one hour at 37° C. in a humidified 95% air/5% CO2 incubator. The blood was stimulated with 2.5 μL anti-human CD3 and anti-CD28 mAb at a final concentration of 1 μg/mL each for 24 hours at 37° C. IFN-7 in the supernatants was measured using AlphLISA kit (Cat #AL217).

Sequence of DGKζ (Q13574 other isoform, or with tags, fused parts or gaps): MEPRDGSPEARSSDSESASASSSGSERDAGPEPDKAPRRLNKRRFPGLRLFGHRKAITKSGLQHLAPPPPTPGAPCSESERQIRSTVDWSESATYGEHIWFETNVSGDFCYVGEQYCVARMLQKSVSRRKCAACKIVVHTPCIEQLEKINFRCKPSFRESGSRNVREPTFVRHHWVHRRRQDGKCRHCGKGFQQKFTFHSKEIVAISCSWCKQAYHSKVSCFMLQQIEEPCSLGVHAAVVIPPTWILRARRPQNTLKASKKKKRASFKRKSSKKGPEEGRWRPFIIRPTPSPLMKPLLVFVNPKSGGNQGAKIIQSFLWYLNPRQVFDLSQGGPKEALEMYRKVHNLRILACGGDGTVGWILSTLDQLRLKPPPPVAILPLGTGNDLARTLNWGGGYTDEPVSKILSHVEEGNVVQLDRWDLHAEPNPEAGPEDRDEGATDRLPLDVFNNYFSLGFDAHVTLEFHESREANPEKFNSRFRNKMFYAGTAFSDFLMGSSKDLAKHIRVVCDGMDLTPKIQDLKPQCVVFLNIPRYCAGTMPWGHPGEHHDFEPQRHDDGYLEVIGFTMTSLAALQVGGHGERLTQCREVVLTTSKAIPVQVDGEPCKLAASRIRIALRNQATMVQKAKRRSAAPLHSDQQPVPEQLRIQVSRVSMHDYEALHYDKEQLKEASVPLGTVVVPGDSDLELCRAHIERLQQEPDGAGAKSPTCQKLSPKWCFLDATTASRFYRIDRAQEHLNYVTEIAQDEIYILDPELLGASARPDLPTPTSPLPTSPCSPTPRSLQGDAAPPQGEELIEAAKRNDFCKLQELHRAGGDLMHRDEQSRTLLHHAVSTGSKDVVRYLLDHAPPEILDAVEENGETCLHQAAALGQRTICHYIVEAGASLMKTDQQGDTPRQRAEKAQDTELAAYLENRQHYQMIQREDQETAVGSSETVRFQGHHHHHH
Sequence of DGKα (P23743 whole entry): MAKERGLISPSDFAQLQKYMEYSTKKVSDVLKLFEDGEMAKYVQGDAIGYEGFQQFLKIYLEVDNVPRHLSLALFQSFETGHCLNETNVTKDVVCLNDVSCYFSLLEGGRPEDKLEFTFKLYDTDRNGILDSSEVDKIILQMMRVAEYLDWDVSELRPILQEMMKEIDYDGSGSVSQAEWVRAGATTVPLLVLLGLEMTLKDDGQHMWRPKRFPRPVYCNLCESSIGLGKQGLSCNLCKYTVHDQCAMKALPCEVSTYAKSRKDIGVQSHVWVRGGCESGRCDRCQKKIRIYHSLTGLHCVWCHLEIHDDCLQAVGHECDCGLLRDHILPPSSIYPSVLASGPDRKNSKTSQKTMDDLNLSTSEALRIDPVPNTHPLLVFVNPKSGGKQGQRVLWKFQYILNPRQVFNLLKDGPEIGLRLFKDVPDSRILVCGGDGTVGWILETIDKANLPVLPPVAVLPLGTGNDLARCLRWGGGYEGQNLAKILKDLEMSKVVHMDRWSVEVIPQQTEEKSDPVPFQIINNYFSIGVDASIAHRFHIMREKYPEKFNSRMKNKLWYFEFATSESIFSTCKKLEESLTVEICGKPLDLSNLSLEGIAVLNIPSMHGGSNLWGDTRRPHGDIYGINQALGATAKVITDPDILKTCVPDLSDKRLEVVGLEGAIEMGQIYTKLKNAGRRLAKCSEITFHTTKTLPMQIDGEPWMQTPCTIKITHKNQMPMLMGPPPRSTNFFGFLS

Turning to `C[C@@H]1CN(c2cc(=O)n(C)c3ccc(C#N)nc23)[C@@H](C)CN1C(C(=O)N1CCCCC1)c1ccc(F)cc1` (single isomer, unassigned) [Example 11], the figures for the IC50 against DGKζ and against DGKα were 1.22 µM and 0.51 µM, respectively.
On the same counts, the results for `C[C@@H]1CN(c2cc(=O)n(C)c3ccc(C#N)nc23)[C@@H](C)CN1C(CC(=O)NC(C)(C)C)c1ccc(F)cc1` (single isomer, unassigned) [Example 33] are 11.1 µM and 6.36 µM.
With `C[C@@H]1CN(c2cc(=O)n(C)c3ccc(C#N)nc23)[C@@H](C)CN1C(CC(=O)NC(C)(C)C)c1ccc(F)cc1` (single isomer, unassigned) [Example 34], the IC50 was 6.84 µM against DGKζ and 4.04 µM on DGKα.
On the same counts, the results for `C[C@@H]1CN(c2cc(=O)n(C)c3ccc(C#N)nc23)[C@@H](C)CN1C(C(=O)NCC(F)F)c1ccc(F)cc1` (stereo partly drawn) [Example 5, 2-((2R,5S)-4-(6-cyano-1-methyl-2-oxo-1,2-dihydro-1,5-naphthyridin-4-yl)-2,5-dimethylpiperazin-1-yl)-N-(2,2-difluoroethyl)-2-(4-fluorophenyl)acetamide] are 3.27 µM and 2.04 µM.
On the same counts, the results for `C[C@@H]1CN(c2cc(=O)n(C)c3ccc(C#N)nc23)[C@@H](C)CN1C(C(=O)N1CCCCC1)c1ccc(F)cc1` (stereo partly drawn) [Example 12] are 6.68 µM and 5.12 µM.
As for `C[C@@H]1CN(c2cc(=O)n(C)c3ccc(C#N)nc23)[C@@H](C)CN1C(C(=O)N1CCOCC1)c1ccc(F)cc1` (stereo partly drawn) [Example 17, 8-((2S,5R)-4-(1-(4-fluorophenyl)-2-morpholino-2-oxoethyl)-2,5-dimethylpiperazin-1-yl)-5-methyl-6-oxo-5,6-dihydro-1,5-naphthyridine-2-carbonitrile], the concentration giving a half-maximal response (EC50) in the test with Human whole blood IFN-γ (24 hours) amounted to 1.49 µM. In addition, the results for the IC50 at DGKζ and on DGKα were 7.75 µM and 2.56 µM, respectively.
For `C[C@@H]1CN(c2cc(=O)n(C)c3ccc(C#N)nc23)[C@@H](C)CN1C(C(=O)N1CCOCC1)c1ccc(F)cc1` (stereo partly drawn) [Example 18, 8-((2S,5R)-4-(1-(4-fluorophenyl)-2-morpholino-2-oxoethyl)-2,5-dimethylpiperazin-1-yl)-5-methyl-6-oxo-5,6-dihydro-1,5-naphthyridine-2-carbonitrile], in that order: 20 µM, 42.9 µM and 24.8 µM.
Consider `C[C@@H]1CN(c2cc(=O)n(C)c3ccc(C#N)nc23)[C@@H](C)CN1C(C(=O)N1CCN(C)CC1)c1ccc(F)cc1` (stereo partly drawn) [Example 19, 8-((2S,5R)-4-(1-(4-fluorophenyl)-2-(4-methylpiperazin-1-yl)-2-oxoethyl)-2,5-dimethylpiperazin-1-yl)-5-methyl-6-oxo-5,6-dihydro-1,5-naphthyridine-2-carbonitrile], for which the EC50 in the test with Human whole blood IFN-γ (Homo sapiens, 24 h) came to 3.44 µM. The IC50 against DGKζ turned out to be 172 µM; against DGKα, 37.1 µM.
As for `C[C@@H]1CN(c2cc(=O)n(C)c3ccc(C#N)nc23)[C@@H](C)CN1C(C(=O)N1CCN(C)CC1)c1ccc(F)cc1` (stereo partly drawn) [Example 20, 8-((2S,5R)-4-(1-(4-fluorophenyl)-2-(4-methylpiperazin-1-yl)-2-oxoethyl)-2,5-dimethylpiperazin-1-yl)-5-methyl-6-oxo-5,6-dihydro-1,5-naphthyridine-2-carbonitrile], the IC50 at DGKζ amounted to 83.3 µM; against DGKα, 253 µM.
As for `C[C@@H]1CN(c2cc(=O)n(C)c3ccc(C#N)nc23)[C@@H](C)CN1C(C(=O)Nc1ccon1)c1ccc(F)cc1` (stereo partly drawn) [Example 29, 2-((2R,5S)-4-(6-cyano-1-methyl-2-oxo-1,2-dihydro-1,5-naphthyridin-4-yl)-2,5-dimethylpiperazin-1-yl)-2-(4-fluorophenyl)-N-(isoxazol-3-yl)acetamide], the EC50 in the test on Human whole blood IFN-γ (Homo sapiens, 24 h) came to 3.75 µM. The IC50 against DGKζ was 2.44 µM; against DGKα, 5.57 µM.
Regarding `C[C@@H]1CN(c2cc(=O)n(C)c3ccc(C#N)nc23)[C@@H](C)CN1C(C(=O)Nc1ccon1)c1ccc(F)cc1` (stereo partly drawn) [Example 30, 2-((2R,5S)-4-(6-cyano-1-methyl-2-oxo-1,2-dihydro-1,5-naphthyridin-4-yl)-2,5-dimethylpiperazin-1-yl)-2-(4-fluorophenyl)-N-(isoxazol-3-yl)acetamide], the results for the concentration for half-maximal inhibition (IC50) at DGKζ and against DGKα were 0.14 µM and 0.02 µM, respectively.
Regarding `CC(C)N(C)C(=O)CC(c1ccc(F)cc1)N1C[C@H](C)N(c2cc(=O)n(C)c3ccc(C#N)nc23)C[C@H]1C` (stereo partly drawn) [Example 42, 3-[(2R,5S)-4-(6-cyano-1-methyl-2-oxo-1,2-dihydro-1,5-naphthyridin-4-yl)-2,5-dimethylpiperazin-1-yl]-3-(4-fluorophenyl)-N-methyl-N-(propan-2-yl)propanamide], the EC50 in the test on Human whole blood IFN-γ (24 hours) was 1.37 µM. Moreover, the figures for the IC50 at DGKζ and on DGKα were 4.12 µM and 0.83 µM, respectively.
For the molecule `C#CCCC1(CCCOC(=O)C(c2ccc(F)cc2)N2C[C@H](C)N(c3cc(=O)n(C)c4ccc(C#N)nc34)C[C@H]2C)N=N1` (stereo partly drawn) [Example 57, 3-(3-(but-3-yn-1-yl)-3H-diazirin-3-yl)propyl 2-((2R,5S)-4-(6-cyano-1-methyl-2-oxo-1,2-dihydro-1,5-naphthyridin-4-yl)-2,5-dimethylpiperazin-1-yl)-2-(4-fluorophenyl)acetate], the EC50 in the test on Human whole blood IFN-γ (Homo sapiens, 24 h) was determined as 0.12 µM. Further, the IC50 came to 0.19 µM against DGKζ and 0.07 µM on DGKα.
In the case of `C[C@@H]1CN(c2cc(=O)n(C)c3ccc(C#N)nc23)[C@@H](C)CN1C(C(=O)OCCC1(C)N=N1)c1ccc(F)cc1` (stereo partly drawn) [Example 62, 2-(3-methyl-3H-diazirin-3-yl)ethyl 2-((2R,5S)-4-(6-cyano-1-methyl-2-oxo-1,2-dihydro-1,5-naphthyridin-4-yl)-2,5-dimethylpiperazin-1-yl)-2-(4-fluorophenyl)acetate], the EC50 with Human whole blood IFN-γ (Homo sapiens, 24 h) amounted to 0.57 µM. The IC50 at DGKζ came out at 0.19 µM; against DGKα, 0.08 µM.
Consider `C[C@@H]1CN(c2cc(=O)n(C)c3ccc(C#N)nc23)[C@@H](C)CN1C(C(=O)NCCOCCOCCNC(=O)c1ccc2c(c1)C(=O)OC21c2ccc(O)cc2Oc2cc(O)ccc21)c1ccc(F)cc1` (stereo partly drawn) [Example 65, N-(2-(2-(2-(2-((2R,5S)-4-(6-cyano-1-methyl-2-oxo-1,2-dihydro-1,5-naphthyridin-4-yl)-2,5-dimethylpiperazin-1-yl)-2-(4-fluorophenyl)acetamido)ethoxy)ethoxy)ethyl)-3′,6′-dihydroxy-3-oxo-3H-spiro[isobenzofuran-1,9′-xanthene]-5-carboxamide], for which the results for the IC50 on DGKζ and against DGKα were 56.6 µM and 96.5 µM, respectively.
On the same counts, the results for `C[C@@H]1CN(c2cc(=O)n(C)c3ccc(C#N)nc23)[C@@H](C)CN1C(C(=O)OCCOCCOCCNC(=O)c1ccc2c(c1)C(=O)OC21c2ccc(O)cc2Oc2cc(O)ccc21)c1ccc(F)cc1` (stereo partly drawn) [Example 68, 2-(2-(2-(3′,6′-dihydroxy-3-oxo-3H-spiro[isobenzofuran-1,9′-xanthene]-5-carboxamido)ethoxy)ethoxy)ethyl 2-((2R,5S)-4-(6-cyano-1-methyl-2-oxo-1,2-dihydro-1,5-naphthyridin-4-yl)-2,5-dimethylpiperazin-1-yl)-2-(4-fluorophenyl)acetate] are 0.41 µM and 0.16 µM.
